These are literature values, as cited in patent publication US8592371B2, “Aminotetrahydropyrans as dipeptidyl peptidase-IV inhibitors for the treatment or prevention of diabetes” (Merck Sharp & Dohme Corp, priority 2008, dated 2013).

One series concerns hematopoiesis. As to conditions: mouse, cyclophosphamide-induced neutropenia; cited from earlier work.
The next series concerns cardiac allograft. The conditions noted are these: rats; from day 7 to day 14; cited from earlier work.
The target in the next series is DPP-4 (Homo sapiens (Human), UniProt P27487). The conditions noted are these: cited from earlier work.
Sequence of DPP-4 (P27487 39-766, species assumed): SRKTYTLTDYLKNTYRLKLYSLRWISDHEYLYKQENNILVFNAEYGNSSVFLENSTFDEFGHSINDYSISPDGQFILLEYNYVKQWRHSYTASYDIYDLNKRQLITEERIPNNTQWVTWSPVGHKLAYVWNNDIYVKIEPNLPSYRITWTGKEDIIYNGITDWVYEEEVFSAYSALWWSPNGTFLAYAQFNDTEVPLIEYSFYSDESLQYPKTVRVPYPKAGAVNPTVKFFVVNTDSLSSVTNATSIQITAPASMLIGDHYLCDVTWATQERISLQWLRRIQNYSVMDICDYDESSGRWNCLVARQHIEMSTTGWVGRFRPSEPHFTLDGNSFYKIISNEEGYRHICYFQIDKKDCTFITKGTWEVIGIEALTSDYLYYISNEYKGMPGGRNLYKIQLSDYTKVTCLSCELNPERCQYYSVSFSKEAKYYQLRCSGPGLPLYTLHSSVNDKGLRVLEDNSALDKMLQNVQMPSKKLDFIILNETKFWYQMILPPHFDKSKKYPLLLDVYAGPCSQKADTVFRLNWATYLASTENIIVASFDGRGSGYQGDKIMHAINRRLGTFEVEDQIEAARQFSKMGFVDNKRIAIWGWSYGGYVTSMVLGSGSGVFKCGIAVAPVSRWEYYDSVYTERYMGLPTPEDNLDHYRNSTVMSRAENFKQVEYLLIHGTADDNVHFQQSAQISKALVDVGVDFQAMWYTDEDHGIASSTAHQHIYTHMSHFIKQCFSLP

As for `CC(C)[C@H](N)C(=O)N1CCC[C@H]1B(O)O` [Val-Boro-Pro], the hematopoiesis result in the series on hematopoiesis is listed as “stimulated hematopoiesis”.

Turning to `CC(C)N1CCC(c2ccccc2)(c2ccccc2)CC1` [Prodipine, Pro-Pro-diphenyl-phosphonate], the cardiac allograft survival entry in the series with cardiac allograft is listed as “double”.

With diprotin A, on DPP-4, the “degradation of GRF in plasma to GRF[3-44]” value is “prevented”.
